Target: prostate-specific membrane antigen (PSMA) (Homo sapiens, UniProt Q04609)
Experiment: purified PSMA, PABGgG hydrolysis by HPLC
Assay type: biochemical

Chain of prostate-specific membrane antigen (PSMA) (Q04609 whole entry): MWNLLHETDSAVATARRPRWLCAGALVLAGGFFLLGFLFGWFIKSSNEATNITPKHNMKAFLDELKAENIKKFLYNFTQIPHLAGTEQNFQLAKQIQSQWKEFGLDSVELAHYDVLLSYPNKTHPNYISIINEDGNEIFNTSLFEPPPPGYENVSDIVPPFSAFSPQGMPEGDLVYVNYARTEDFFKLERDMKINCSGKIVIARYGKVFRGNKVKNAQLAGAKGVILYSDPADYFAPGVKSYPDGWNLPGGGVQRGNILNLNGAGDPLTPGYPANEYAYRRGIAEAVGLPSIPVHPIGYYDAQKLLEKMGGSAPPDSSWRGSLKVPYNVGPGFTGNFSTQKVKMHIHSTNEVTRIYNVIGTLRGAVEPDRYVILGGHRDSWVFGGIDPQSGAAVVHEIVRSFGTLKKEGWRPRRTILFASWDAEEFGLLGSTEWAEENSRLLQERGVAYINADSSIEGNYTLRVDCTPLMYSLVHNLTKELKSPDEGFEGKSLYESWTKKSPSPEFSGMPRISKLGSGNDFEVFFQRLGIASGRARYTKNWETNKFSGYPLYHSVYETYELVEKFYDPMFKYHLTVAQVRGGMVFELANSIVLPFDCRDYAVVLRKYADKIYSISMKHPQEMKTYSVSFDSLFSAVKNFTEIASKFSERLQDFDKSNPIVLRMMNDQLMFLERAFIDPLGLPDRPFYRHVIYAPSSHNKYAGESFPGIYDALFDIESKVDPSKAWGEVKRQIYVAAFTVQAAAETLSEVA

Row | IC50 | Substance
1 | 1 nM | DBCO-PEG4-CTT-54 [compound 5]
2 | 6.6 nM | DBCO-PEG4-CTT-54.2 [compound 6]

Reference: paper PMC4414331 (The Prostate, 2012)
